Data set [1] deals with HSV-1 (KOS ACV) TK−. In words: microbe, parasite or virus in culture. The data set is classed as cell-based, herpes simplex virus 1. The conditions noted are these: Human alphaherpesvirus 1, read-out: EC50 HSV-1 (KOS ACV) TK−.
Data set [2] relates to varicella-zoster virus (VZV) TK− (07/1). In words: microbe, parasite or virus in culture. The data set is classed as cell-based. The conditions noted are these: Human alphaherpesvirus 3, HEL, read-out: EC50 VZV TK− (07/1).
The subject of data set [3] is Feline Herpes Virus. In words: organism not typed. Conditions: read-out: EC50 Feline Herpes Virus. The class given is cell-based.
The subject of data set [4] is human cytomegalovirus (HCMV) (Davis). In words: microbe, parasite or virus in culture. The class given is cell-based. The conditions noted are these: Human betaherpesvirus 5, HEL, read-out: EC50 HCMV (Davis).
Data set [5] deals with human cytomegalovirus (HCMV) (AD-169). In words: microbe, parasite or virus in culture. The class given is cell-based. The conditions noted are these: Human betaherpesvirus 5, AD169, HEL, read-out: EC50 HCMV (AD-169).
Data set [6] relates to Vaccinia Virus. In words: microbe, parasite or virus in culture. The class given is cell-based. Conditions: Orthopoxvirus vaccinia, HEL, read-out: EC50 Vaccinia Virus.
For data set [7], the system named is herpes simplex virus 1 (HSV-1) (KOS). In words: microbe, parasite or virus in culture. The data set is classed as cell-based. The conditions noted are these: Human alphaherpesvirus 1, HEL, read-out: EC50 HSV-1 (KOS).
Data set [8] has as its system varicella-zoster virus (VZV) TK+ (OKA). In words: microbe, parasite or virus in culture. The data set is classed as cell-based. Conditions: Human alphaherpesvirus 3, HEL, read-out: EC50 VZV TK+ (OKA).
Data set [9] deals with HSV-2 (G). In words: microbe, parasite or virus in culture. The data set is classed as cell-based, herpes simplex virus 2. The conditions noted are these: Human alphaherpesvirus 2, HEL, read-out: EC50 HSV-2 (G).
Data set [10] deals with HSV-1, HSV-2, HSV-1 (TK−), VV, FHV. The class given is cell-based.
Data set [11] can be described thus: in vitro. Conditions: human.
The test system of data set [12] is HEL cell cultures. Conditions: human.

Experimental findings from US11603380B2 (Centre national de la recherche scientifique, priority 2018, dated 2023) are described below.

Molecules are shown by their SMILES. Bounds are passed on as bounds.

`CC(=O)OCC(=CCP(=O)(OCOC(=O)C(C)(C)C)OCOC(=O)C(C)(C)C)COc1cc(N)nc(N)n1` (mixture of isomers) [Compound (4), [[(Z/E)-3-(acetoxymethyl)-4-(2,6-diaminopyrimidin-4-yl)oxy-but-2′-enyl]-(2,2-dimethylpropanoyloxymethoxy)phosphoryl]oxymethyl 2,2-dimethylpropanoate]: the EC50 in [1] is 0.6 µM; in [2], 0.12 µM; in [3], greater than 100 µM; in data set [4], 4.06 µM; in data set [5], 8.56 µM; in [6], 2.9 µM. Besides, the figures for the EC50 in data set [7], in [8] and in data set [9] were 0.6 µM, 0.14 µM and 1.1 µM, respectively. Moreover, in data set [10], the “activity level against HSV-1, HSV-2, HSV-1 (TK−), VV, FHV” value (“activity level” below) is “micromolar and sub-micromolar activities”. The compound also yielded a CC50 at 3 days in [11] of 2.02 µM. Besides, the “Cytotoxicity MCC” value in data set [12] came out at 100 µM.
On to `Nc1nc2c(ncn2COCCO)c(=O)[nH]1` [Acyclovir, reference compound], for which the EC50 is 250 µM in [4], 0.4 µM in data set [5] and greater than 100 µM in data set [6]. Moreover, the CC50 was 134 ± 10 µM in data set [11] and greater than 100 µM in data set [11] (Cytotoxicity CC50).
Take `O=c1[nH]c(=O)n([C@H]2C[C@H](O)[C@@H](CO)O2)cc1/C=C/Br` [Brivudine, reference compound]: the EC50 is 117 µM in [2]; 250 µM in data set [4]; 0.08 µM in data set [5]; 22 µM in data set [6]; 0.01 µM in [8]. Moreover, the CC50 is 339 µM in [11] and greater than 100 µM in [11] (Cytotoxicity CC50). The “Cytotoxicity MCC” value in [12] is greater than 100 µM.
`CC(C)(C)C(=O)OCOP(=O)(C/C=C/COc1cc(N)nc(N)n1)OCOC(=O)C(C)(C)C` [Compound (1), [[(E)-4-(2,6-diaminopyrimidin-4-yl)oxybut-2′-enyl]-(2,2-dimethylpropanoyloxymethoxy)phosphoryl]oxymethyl 2,2-dimethylpropanoate]: the EC50 in [1] is 13.4 µM; in [2], 2.32 µM; in data set [3] it was greater than 100 µM; in [4], 44.7 µM; in data set [5], 44.7 µM; in [6], 32.5 µM. Further, the EC50 in data set [7] is 13.4 µM; in [8], 2.04 µM; in [9], 13.4 µM. The “activity level” value in [10] was “micromolar and sub-micromolar activities”. Further, in data set [11], the CC50 at 3 days was 5.1 µM. For the same compound, in data set [12], the “Cytotoxicity MCC” value was greater than 100 µM.
As for `CC(C)OC(=O)OCOP(=O)(C/C=C/COc1cc(N)nc(N)n1)OCOC(=O)OC(C)C` [Compound (3), [[(E)-4-(2,6-diaminopyrimidin-4-yl)oxybut-2′-enyl]-(isopropoxycarbonyloxymethoxy)phosphoryl]oxymethyl isopropyl carbonate], the EC50 in [1] was 5.75 µM; in data set [2], 1.25 µM; in data set [3] it was greater than 100 µM; in data set [4] it was 36.6 µM; in data set [5] it was 44.7 µM; in data set [6] it was greater than 100 µM. The EC50 was found to be 3.75 µM in data set [7], 0.86 µM in [8] and 1.85 µM in data set [9]. In addition, the “activity level” value in data set [10] is “micromolar and sub-micromolar activities”. Further, in data set [11], the CC50 at 3 days came out at 99 µM. Also, the “Cytotoxicity MCC” value in data set [12] is greater than 100 µM.
Consider `CC(=O)OC/C(=C\CP(=O)(OCOC(=O)OC(C)C)OCOC(=O)OC(C)C)COc1cc(N)nc(N)n1` [Compound (6), [(Z)-4-[bis(isopropoxycarbonyloxymethoxy)phosphoryl]-2-[(2,6-diaminopyrimidin-4-yl)oxymethyl]but-2-enyl]acetate], for which the EC50 is 0.4 µM in data set [1]; 0.22 µM in [2]; greater than 100 µM in [3]; 49.7 µM in data set [4]; greater than 20 µM in data set [5]; 4.1 ± 2.4 µM in data set [6]. Further, the EC50 was 0.6 ± 0.2 µM in data set [7], 0.089 µM in data set [8] and 0.35 ± 0.05 µM in [9]. The same compound showed a CC50 at 3 days in [11] of 15.4 µM. Besides, the “Cytotoxicity MCC” value in [12] is greater than 100 µM.
`CC(C)(C)C(=O)OCOP(=O)(/C=C/COc1cc(N)nc(N)n1)OCOC(=O)C(C)(C)C` [Compound (9), [[(E)-3-(2,6-diaminopyrimidin-4-yl)oxyprop-1-enyl]-(2,2-dimethyl-propanoyloxymethoxy)phosphoryl]oxymethyl 2,2-dimethylpropanoate]: the EC50 in data set [1], in [2], in data set [3], in data set [4], in data set [5] and in [6] was greater than 100 µM in each case. The EC50 in data set [7] is greater than 100 µM; in [8], 76.5 µM; in [9], greater than 100 µM. In addition, the “Cytotoxicity MCC” value in data set [12] is greater than 100 µM.
Regarding `CC(C)(C)C(=O)OCOP(=O)(CC/C=C/COc1cc(N)nc(N)n1)OCOC(=O)C(C)(C)C` [Compound (10), [[(E)-5-(2,6-diaminopyrimidin-4-yl)oxypent-3-enyl]-(2,2-dimethyl-propanoyloxymethoxy)phosphoryl]oxymethyl 2,2-dimethylpropanoate], the EC50 was greater than 100 µM in data set [1]; 24.5 µM in data set [2]; greater than 100 µM in [3]; greater than 100 µM in data set [4]; greater than 100 µM in [5]; greater than 100 µM in data set [6]. For the same compound, the EC50 is greater than 100 µM in [7], 34.2 µM in data set [8] and greater than 100 µM in [9]. Further, the “Cytotoxicity MCC” value in [12] was 100 µM.
As to `C/C(=C\CP(=O)(OCOC(=O)C(C)(C)C)OCOC(=O)C(C)(C)C)COc1cc(N)nc(N)n1` [Compound (11), [[(E)-4-(2,6-diaminopyrimidin-4-yl)oxy-3-methyl-but-2-enyl]-(2,2-dimethyl-propanoyloxymethoxy)phosphoryl]oxymethyl 2,2-dimethylpropanoate], the EC50 in data set [1] is 51.5 µM; in data set [2], 49.3 µM; in [3], greater than 100 µM; in data set [4], greater than 100 µM; in data set [5], greater than 100 µM; in data set [6], 49.3 µM. Besides, the results for the EC50 in [7], in [8] and in data set [9] were greater than 100 µM, 51.5 µM and greater than 100 µM, respectively. In addition, the “Cytotoxicity MCC” value in [12] is greater than 100 µM.
Regarding `CC(C)(C)C(=O)OCOP(=O)(CCCCOc1cc(N)nc(N)n1)OCOC(=O)C(C)(C)C` [Compound (12)], the EC50 in data set [1] is 42 µM; in [2], 11 µM; in data set [3], greater than 100 µM; in data set [4], greater than 20 µM; in data set [5] it was 44.7 µM; in data set [6], greater than 100 µM. For the same compound, the values for the EC50 in data set [7], in data set [8] and in data set [9] were 39.5 µM, 11.3 µM and 39.5 µM, respectively. For the same compound, in data set [11], the CC50 at 3 days worked out at 54.9 µM. For the same compound, the “Cytotoxicity MCC” value in data set [12] was greater than 100 µM.
Consider `Nc1nc(O)c2ncn(COC(CO)CO)c2n1` [Ganciclovir, reference compound], for which the values for the EC50 in [3], in data set [6] and in data set [9] were 1.4 µM, greater than 100 µM and 0.06 µM, respectively. Besides, the CC50 in [11] (Cytotoxicity CC50) is greater than 100 µM. Moreover, the “Cytotoxicity MCC” value in data set [12] was greater than 100 µM.
